Reference: paper PMC11952846, “The sterol-regulating human ARV1 binds cholesterol and phospholipids through its conserved ARV1 homology domain” (The Journal of Biological Chemistry, 2025)

Tests used:
GST-ARV1-N98 K54/K59A = biological target: T1, GST-ARV1-N98 K54/K59A (Homo sapiens, UniProt Q9H2C2, K54A/K59A); assay: Liposome binding assay, site-directed mutant; conditions: PC:PL, sulfatide liposomes
T1 construct: Expresses amino-terminal 98 amino acids of ARV1; made in house; host or cells: E. coli BL21 (pGEX-4T1)
T1 sequence (Q9H2C2 1-98 K54A/K59A): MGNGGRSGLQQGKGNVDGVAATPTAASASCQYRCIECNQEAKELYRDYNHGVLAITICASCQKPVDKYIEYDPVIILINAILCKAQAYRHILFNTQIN

GST-ARV1-N98 N94Q = biological target: T2, GST-ARV1-N98 N94Q (Homo sapiens, UniProt Q9H2C2, N94Q); assay: Liposome binding assay, site-directed mutant; conditions: PI(4)P liposomes
T2 construct: Expresses amino-terminal 98 amino acids of ARV1; made in house; host or cells: E. coli BL21 (pGEX-4T1)
T2 sequence (Q9H2C2 1-98 N94Q): as the sequence (Q9H2C2 1-98 K54A/K59A) above, with A54K, A59K, N94Q counted along it

Question: `CCCCCCCC/C=C\CCCCCCCC(=O)OC[C@H](COP(=O)(O)OCC(O)CO)OC(=O)CCCCCCC/C=C\CCCCCCCC` (some centres unmarked) [PG, phosphatidylglycerol] was tested. Which liposome binding (GST-ARV1-N98 K54/K59A) did it give?
Answer: unable to bind

Question: With `CCCCCC(=O)O[C@H](COC(=O)CCCCCNC(=O)CCCC[C@@H]1SC[C@@H]2NC(=O)N[C@@H]21)COP(=O)(O)O[C@H]1[C@H](O)[C@@H](O)[C@H](OP(=O)(O)O)[C@@H](O)[C@H]1O` [reference compound] as the compound, how does the liposome binding (GST-ARV1-N98 N94Q) read?
Answer: lost the ability to bind
